Measurements as given in US9622987B2, “Synergistic pharmaceutical composition useful for the treatment of lung cancer” (Council of Scientific & Industrial Research, priority 2012, dated 2017).

Test system: Lung Cancer cell Line (A-549)
Assay: Cell death / viability of A549 lung cancer cells exposed to vapour (MTT, trypan blue)
Type: cell-based
Settings: for activity so far lung cancer cell death is concerned (FIG. 1C): vapors of single compounds, 1:2000 dilution, 48 h, A549
Procedure: The lung cancer cell line, A-549 were cultured in DMEM (Dulbecco's Modified Eagle Medium) containing Earle's salts and non-essential amino acids supplemented with 10% fetal calf serum, penicillin (100 U/ml) and streptomycin (100 μg/ml) in a humidified 95% O2/5% CO2 atmosphere at 37° C. Confluent cells were subcultured by trypsinization and subsequently seeded in 6 well culture plates containing DMEM with essential supplements.
After CVp treatment, cells were washed with PBS, trypsinized and re-suspended in complete growth medium. Trypan blue (0.4%) was added to the cell suspension and both live and dead cells were counted using a heamocytometer.
Cell viability was determined by performing MTT assay (Chemicon, Temecula, Calif., USA) according to manufacturer's instructions. Briefly, cells were plated in 96 well plates. Overnight after cell plating, cells were incubated with CVp. Briefly, 10 μL of 3-(4,5-dimethylthiazol-2-yl)-2-5-diphenyl tetrazolium bromide (MTT) was added to each well for 4 h at 37° C. After solubilization in 100 μL 1(N) isopropanol/0.04(N) HCl, absorbance was read at 595 nm in microplate reader (Thermo Electron Corporation, MA, USA).
The vapors generated from each of these wells were exposed to cells at 1:2000 dilution for 48 h. […] We therefore used the vapor from these combined compounds which is henceforth termed as Combined Vapour (CVp=C2+C3+C4).

Row | Structure (SMILES) | activity so far lung cancer cell death is concerned (FIG. 1C) | Activity in vapour form % of cell death for Lung Cancer cell Line (A-549) [%]
1 | CC(C)=CCCC(C)CCO (stereo not drawn) [Compound C4, Citronellol] | highest activity | 70.0 ± 6.0
2 | C=C(C)C1CCC(C)CC1O (stereo not drawn) [Compound C2, Neo-isopulegol] | – | 30.5 ± 5.0
3 | CC(C)=CCCC(C)CC=O (stereo not drawn) [Compound C1, Citronellal] | poor activity | 12.5 ± 3.6
4 | C=C(C)[C@@H]1CC[C@@H](C)C[C@H]1O [Compound C3, Isopulegol] | – | 36.0 ± 4.5
